# Data from PMC6828666, “Discovery of holoenzyme-disrupting chemicals as substrate-selective CK2 inhibitors” (Scientific Reports, 2019).
# How the values were obtained:
# CK2 = biological target: T1, CK2 (Homo sapiens, UniProt P68400); experiment: CK2 kinase assay with CK2β-independent peptide substrate […]; assay type: biochemical
# T1 construct: made in house; host or cells: Escherichia coli (CK2α)
# Experimental: The following peptide substrates were employed: a canonical CK2 peptide substrate […] phosphorylated equally by CK2α and CK2α2β2 (CK2β-independent peptide substrate), and […] exclusively phosphorylated by CK2α2β2 (CK2β-dependent peptide substrate)[4]. GST-Olig2-(1-177), was used as a CK2β-dependent protein substrate.
# CK2 kinase assays were performed in a final assay volume of 18 μL containing 3 μL of compounds, 3 μL of CK2α (36 ng) and a mixture of 1 mM peptide substrate, 10 mM MgCl2, and 1 μCi [γ^32P]-ATP. Final concentration of ATP was 100 μM. Assays were performed under linear kinetic conditions for 5 min at room temperature before termination by the addition of 60 μL of 4% TCA. ^32P incorporation in peptide substrate was determined as previously described.
# Fig. S6. […] (a) Dose-dependent inhibition of CK2. CK2α (40 nM) was incubated with increasing concentrations of compound 1 (●), 4 (π) or 6 (○) in the presence of 20 nM CK2β. CK2 activity was determined with a saturating concentration of CK2β-dependent peptide substrate. (b) Differential effects of 6 on the phosphorylation of CK2 peptide substrates. CK2α (40 nM) was incubated with increasing concentrations of 6 in the presence of 20 nM CK2β. CK2 activity was determined with a saturating concentration of CK2β-independent peptide substrate (?) or CK2β-dependent peptide substrate (○). […]
# [1] = system: Akt phosphorylation at Ser129 in MCF10A cells; experiment: Western blot of Akt Ser129 phosphorylation; assay type: cell-based, human; settings: 48 h
# Experimental: (§1) Figure 5 Cellular effects of compounds 3, 4 and 6. MCF10A cells were incubated for 24 h with either DMSO or 30 μM TAT or 30 μM TAT-Pc or 25 μM 6 (a) or with increasing concentrations of 6 (b) or 3 (c). MCF10A cells were incubated for 48 h with either DMSO or with increasing concentrations of 3 or 6 (d). Cells were then lysed and analyzed by western blot with the indicated antibodies. Blot images are representative of at least three independent experiments. Uncropped blots are shown in Supplementary Fig. S16. (e) MDA-MB231 cells were treated with 40 μM 6 (⚬), 4 (▴) or 3 (X). (f) MDA-MB231 cells were treated for 30 h with increasing concentrations of 6 (⚬) or 4 (▴). Insert: cells were treated for 30 h with 80 μM 6 or 10 μM CX-4945. […] Cell death was automatically quantified from images captured every 3 h for the duration of the experiments using an Essen IncuCyte Zoom live-cell microscopy incubator. […]
# (§2) Cells were lysed in RIPA buffer (10 mM Tris-HCl pH 7.4, 150 mM NaCl, 1% Triton X-100, 0.1% SDS, 0.5% DOC and 1 mM EDTA) containing both protease- and phosphatase-inhibitor cocktails (Sigma-Aldrich; P8340, P2850, P5726). Cell homogenates were quantified using BCA protein Assay kit (Thermo Scientific). […] Luminata Forte Western HRP substrate (Millipore) was added and membranes were read with Fusion Fx7 (PerkinElmer). […] Images were analyzed and band intensities were quantified using ImageJ software. […]
# MDA-MB231 cells = experiment: Apoptosis by annexin V/propidium iodide staining; assay type: cell-based; settings: MDA-MB231, 40 μM, AV/PI staining
# Experimental: Cells plated at equal density (2 × 10^4 cells/well) were treated with the indicated inhibitors in cell culture medium containing 0.5 μg/ml Propidium iodide (Sigma-Aldrich). Images of PI-stained red fluorescent cells were captured every 3 h for the duration of the experiment. For apoptosis detection, 50 μL/mL fluorochrome-conjugated Annexin V (Molecular Probes) was added to the medium together with Propidium iodide and apoptotic cell numbers were calculated.
# Fig. S12. […] Cell viability was assessed by Annexin V staining (a) or PI staining (b) using the Essen IncuCyte Zoom live-cell microscopy incubator. Images were captured every hour for the duration of the experiment. Error bars represent the SEM of two biological replicates derived from technical triplicates.
# [2] = system: p21 phosphorylation at Thr145 in MCF10A cells; experiment: Western blot of p21 Thr145 phosphorylation; assay type: cell-based, human; settings: 24 h
# Experimental: Figure 5 Cellular effects of compounds 3, 4 and 6. MCF10A cells were incubated for 24 h with either DMSO or 30 μM TAT or 30 μM TAT-Pc or 25 μM 6 (a) or with increasing concentrations of 6 (b) or 3 (c). MCF10A cells were incubated for 48 h with either DMSO or with increasing concentrations of 3 or 6 (d). Cells were then lysed and analyzed by western blot with the indicated antibodies. Blot images are representative of at least three independent experiments. Uncropped blots are shown in Supplementary Fig. S16. (e) MDA-MB231 cells were treated with 40 μM 6 (⚬), 4 (▴) or 3 (X). (f) MDA-MB231 cells were treated for 30 h with increasing concentrations of 6 (⚬) or 4 (▴). Insert: cells were treated for 30 h with 80 μM 6 or 10 μM CX-4945. (g) Cells were incubated with 80 μM 6 or 4 in the absence or presence of 20 μM Z-VAD. […] (h) MDA-MB231 cells (⚬) or MCF10A cells (⦁) were incubated for 24 h with 80 μM 6. Cell death was automatically quantified from images captured every 3 h for the duration of the experiments using an Essen IncuCyte Zoom live-cell microscopy incubator. Error bars represent the SEM of two biological replicates derived from technical triplicates.
# as §2, with “Scientific). SDS-PAGE was performed using pre-cast 4–12% gradient gel (Bio-Rad) and submitted to electrophoresis in NuPAGE buffer (150 V for 75 min). Separated proteins at 20 μg/lane were transferred to PVDF membranes (100 V for 60 min).” for “Scientific).”
# CK2α = CK2α (Homo sapiens, UniProt P68400); experiment: STD-NMR competition with AMPPNP; assay type: binding
# Chain of CK2α (P68400 whole entry): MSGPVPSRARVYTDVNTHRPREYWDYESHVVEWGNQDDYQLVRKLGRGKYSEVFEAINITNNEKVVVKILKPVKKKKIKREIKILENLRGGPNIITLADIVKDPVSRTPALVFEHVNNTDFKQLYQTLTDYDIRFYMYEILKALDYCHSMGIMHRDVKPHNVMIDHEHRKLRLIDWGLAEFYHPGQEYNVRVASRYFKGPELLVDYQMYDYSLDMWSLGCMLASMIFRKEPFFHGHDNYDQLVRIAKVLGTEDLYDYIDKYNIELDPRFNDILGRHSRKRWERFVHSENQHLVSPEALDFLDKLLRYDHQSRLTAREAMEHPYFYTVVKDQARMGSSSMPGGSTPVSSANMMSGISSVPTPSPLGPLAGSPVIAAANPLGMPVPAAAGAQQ
# Experimental: Standard 1D, STD, and WaterLOGSY NMR spectra were acquired at 20 °C with a Bruker 600 MHz NMR spectrometer, equipped with a Z-gradient cryoprobe. WaterLOGSY mixing time was 1.5 s. Both STD and WaterLOGSY spectra were recorded for each sample. WaterLOGSY spectra in the absence of protein receptor were recorded with 300 µM compound to assess the compound solubility. All the NMR experiments were performed at 293 K with excitation sculpting to suppress peaks from water. 1D and STD experiments were performed using identical experimental conditions (spin lock, interscan delays), and parameters for the STD experiments (saturation frequency and saturation time) were identical for all samples. […] NMR tubes contained 2 μM CK2 with 300 μM of 4.
# Fig. S8. NMR-based investigation of the binding of compound 4 to CK2α. (a) NMR-STD epitope mapping observed for compound 4. […] Both compounds bind simultaneously to CK2α.
# [3] = system: survivin expression in MCF10A cells; experiment: Western blot of survivin expression; assay type: cell-based, human; settings: 24 h, 25 μM 6 or 30 μM TAT-Pc
# Experimental: as §1, §2
# [4] = system: PARP cleavage in MCF10A cells; experiment: Western blot of PARP cleavage; assay type: cell-based, human; settings: 24 h, 25 μM 6 or 30 μM TAT-Pc
# Experimental: as §1, §2
# T1 sequence (P68400 whole entry): as above
compound,measurement,setting,value
COc1[nH]c2ccc(F)cc2c1C(=O)OCC1CCN(CCNS(C)(=O)=O)CC1 [Compound 1],inhibition at 50 µM,"CK2; at 50 μM, read-out: inhibition of phosphorylation of canonical CK2β-independent peptide substrate",15%
"CS(=O)(=O)NCCN1CCC(COC(=O)c2c[nH]c3ccccc23)CC1 [Compound 3, (1-(2-(Methylsulfonamido)ethyl)piperidin-4-yl)methyl 1H-indole-3-carboxylate]",Akt phosphorylation at Ser129,[1]; 100 µM,slight but not statistically significant alteration
same,induction of apoptosis,MDA-MB231 cells,unable to induce apoptosis
same,p21 phosphorylation,[2]; 100 μM,moderate increase
"O=C(OCC1CCN(CCNS(=O)(=O)c2ccccc2)CC1)c1c[nH]c2ccccc12 [Compound 4, (1-(2-(Phenylsulfonamido)ethyl)piperidin-4-yl)methyl 1H-indole-3-carboxylate]",displacement of AMPPNP upon compound binding,CK2α,not displaced
COc1[nH]c2ccc(F)cc2c1C(=O)OCC1CCN(CCNS(=O)(=O)c2ccccc2)CC1.Cl [Compound 6],Akt phosphorylation at Ser129,[1]; 30 µM,slight but not statistically significant alteration
same,exposure time after which apoptosis was detected,MDA-MB231 cells,8 h
same,survivin expression,[3],decreased
same,PARP cleavage,[4],No significant PARP cleavage
same,concentration at which p21 Thr145 phosphorylation reaches the maximum,[2],20 µM
same,p21 Thr145 phosphorylation,[2]; increasing concentrations,striking dose-dependent increase
same,phosphorylation of the CK2β-independent peptide substrate,"CK2; increasing concentrations, 40 nM CK2α, 20 nM CK2β",only weakly affected
